Results: patent publication US9062071B2, “Substituted piperidines as HDM2 inhibitors” (Merck Sharp & Dohme Corp, priority 2011, dated 2015)

biological target: HDM2 protein (Homo sapiens, UniProt Q00987); assay: fluorescence polarization screening assay (FP IC50); type: binding; details: class symbols
Experimental: The compounds were evaluated to determine activity at the HDM2 protein by known methods such as the fluorescence polarization screening assay that measures the inhibitory concentration that achieves 50% of maximal activity (FP IC50) and the dissociation constant for inhibitor binding (FP Ki). [Zhang et al., J. Analytical Biochemistry 331: 138-146 (2004)].

Sequence of HDM2 protein (Q00987 whole entry): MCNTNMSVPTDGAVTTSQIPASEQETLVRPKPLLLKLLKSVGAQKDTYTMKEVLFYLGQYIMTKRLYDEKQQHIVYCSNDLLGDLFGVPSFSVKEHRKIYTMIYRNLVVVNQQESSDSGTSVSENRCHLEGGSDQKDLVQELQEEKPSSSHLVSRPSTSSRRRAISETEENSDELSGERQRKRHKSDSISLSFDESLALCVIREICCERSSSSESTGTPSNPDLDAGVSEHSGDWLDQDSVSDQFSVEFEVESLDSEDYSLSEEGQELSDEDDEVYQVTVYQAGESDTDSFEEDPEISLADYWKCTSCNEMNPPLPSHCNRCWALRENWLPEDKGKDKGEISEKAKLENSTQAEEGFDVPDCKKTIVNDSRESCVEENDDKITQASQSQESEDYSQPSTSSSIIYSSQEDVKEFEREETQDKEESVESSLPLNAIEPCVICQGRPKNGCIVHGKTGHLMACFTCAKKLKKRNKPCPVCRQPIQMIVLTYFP

Row | IC50 [nM] | Compound
1 | 1 to 100 | CCC[C@H]1N(C(=O)c2ncccc2C(F)(F)F)CCC[C@@]1(Oc1csc(C(F)(F)F)c1)C(=O)N1Cc2ccc(Cl)cc2C[C@@H]1CCC(=O)NC [Compound A136, 3-[(3S)-6-chloro-2-{[(2R,3S)-2-propyl-1-{[3-(trifluoromethyl)pyridin-2-yl]carbonyl}-3-{[5-(trifluoromethyl)thiophen-3-yl]oxy}piperidin-3-yl]carbonyl}-1,2,3,4-tetrahydroisoquinolin-3-yl]-N-methylpropanamide]
2 | 1 to 100 | CCC[C@H]1N(C(=O)c2ncccc2C(F)(F)F)CCC[C@@]1(Oc1csc(C(F)(F)F)c1)C(=O)N1Cc2sc(Cl)cc2CC1C(=O)O (stereo partly drawn) [Compound A172, 2-chloro-6-{[(2R,3S)-2-propyl-1-{[3-(trifluoromethyl)pyridin-2-yl]carbonyl}-3-{[5-(trifluoromethyl)thiophen-3-yl]oxy}piperidin-3-yl]carbonyl}-4,5,6,7-tetrahydrothieno[2,3-c]pyridine-5-carboxylic acid]
3 | 101 to 20000 | CCC[C@H]1N(C(=O)c2ncccc2C(F)(F)F)CCC[C@@]1(Oc1csc(C(F)(F)F)c1)C(=O)N1CCc2ccc(F)cc2C1 [Compound A138, 7-fluoro-2-{[(2R,3S)-2-propyl-1-{[3-(trifluoromethyl)pyridin-2-yl]carbonyl}-3-{[5-(trifluoromethyl)thiophen-3-yl]oxy}piperidin-3-yl]carbonyl}-1,2,3,4-tetrahydroisoquinoline]
4 | 1 to 100 | CCC[C@H]1N(C(=O)c2ncccc2C(F)(F)F)CCC[C@@]1(Oc1csc(C(F)(F)F)c1)C(=O)N1Cc2ccc(Cl)cc2C[C@@H]1CCC(=O)NS(C)(=O)=O [Compound A148, 3-[(3S)-6-chloro-2-{[(2R,3S)-2-propyl-1-{[3-(trifluoromethyl)pyridin-2-yl]carbonyl}-3-{[5-(trifluoromethyl)thiophen-3-yl]oxy}piperidin-3-yl]carbonyl}-1,2,3,4-tetrahydroisoquinolin-3-yl]-N-(methylsulfonyl) propanamide]

The remaining lines, values behind:

Row | Compound | IC50 [nM]
5 | CCC[C@H]1N(C(=O)c2ncccc2C(F)(F)F)CCC[C@@]1(Oc1csc(C(F)(F)F)c1)C(=O)N1CCc2cc(Cl)ccc2C1C(N)=O (stereo partly drawn) [Compound A77, 6-chloro-2-{[(2R,3S)-2-propyl-1-{[3-(trifluoromethyl)pyridin-2-yl]carbonyl}-3-{[5-(trifluoromethyl)thiophen-3-yl]oxy}piperidin-3-yl]carbonyl}-1,2,3,4-tetrahydroisoquinoline-1-carboxamide] | 1 to 100
6 | CN1CCN(CC[C@H]2N(C(=O)c3ncccc3C(F)(F)F)CCC[C@@]2(Oc2csc(C(F)(F)F)c2)C(=O)N2CCc3cc(Cl)ccc3C2)CC1 [Compound A115, 6-chloro-2-{[(2R,3S)-2-[2-(4-methylpiperazin-1-yl)ethyl]-1-{[3-(trifluoromethyl)pyridin-2-yl]carbonyl}-3-{[5-(trifluoromethyl)thiophen-3-yl]oxy}piperidin-3-yl]carbonyl}-1,2,3,4-tetrahydroisoquinoline] | 1 to 100
7 | CCC[C@H]1N(C(=O)c2ncccc2C(F)(F)F)CCC[C@@]1(Oc1csc(C(F)(F)F)c1)C(=O)N1Cc2cc(F)ccc2CC1C(=O)O (stereo in doubt) [Compound A126, (3S)-7-fluoro-2-{[(2R,3S)-2-propyl-1-{[3-(trifluoromethyl)pyridin-2-yl]carbonyl}-3-{[5-(trifluoromethyl)thiophen-3-yl]oxy}piperidin-3-yl]carbonyl}-1,2,3,4-tetrahydroisoquinoline-3-carboxylic acid] | 1 to 100
8 | CCC[C@H]1N(C(=O)c2ncccc2C(F)(F)F)CCC[C@@]1(Oc1csc(C(F)(F)F)c1)C(=O)N1CCc2cc(Cl)ccc2C1CC(C)(C)C(=O)O (stereo partly drawn) [Compound A64, 3-(6-chloro-2-{[(2R,3S)-2-propyl-1-{[3-(trifluoromethyl)pyridin-2-yl]carbonyl}-3-{[5-(trifluoromethyl)thiophen-3-yl]oxy}piperidin-3-yl]carbonyl}-1,2,3,4-tetrahydroisoquinolin-1-yl)-2,2-dimethylpropanoic acid] | 1 to 100
